Tests used:
biofilm = experiment: Biofilm disruption assay; assay type: cell-based
Description: The solution of 0.5% AN0128.0.75% SLS. 50% Fluraflo L4370 in water is then tested in a biofilm disruption assay.
A solution of 2% Compound 1 in PEG 300 is diluted 1:1 with 2% SLS in water to produce a solution composed of 1% Compound 1, 1% SLS, 50% PEG 300 in water which is then tested in a biofilm disruption assay.
The properties of Compound 1 in conjunction with other excipients are further evaluated by diluting a solution of Compound 1 in PEG 300 into other solvents such as propylene glycol and glycerin at varying ratios. A solution containing 1% Compound 1 in 19% PEG 300 and 80% propylene glycol is clear. This solution is then diluted 1:1 with 1% SLS in water to produce a solution composed of 0.5% Compound 1, 0.5% SLS, 9.5% PEG 300 and 40% propylene glycol in water which is then tested in the biofilm disruption assay. The percent reduction achieved versus the negative control is 80%. […] Similar results are achieved with PEG and glycerin.

[1] = Stability of Compound 1 formulations with and without antioxidants; assay type: physicochemical
Source text: The stability of three formulations of Compound 1 are compared, the formulations being identical except that one is without any antioxidants, one contains α-tocopherol, and the third contains sodium ascorbylphosphate.

[2] = assay type: physicochemical
Source text: The poor solubility of Compound A presents some formulation challenges. Its solubility in water is less than 100 ppm, and its solubility in flavor oils (often used to solubilize actives) is less than 0.5%. We have discovered that co-polymers of polyethylene glycol and polypropylene glycol are able to solubilize Compound 1. Fluraflo L4370 (BASF) is able to solubilize 1% Compound 1 (% w/w). It is necessary to stir the solution over low heat to fully solubilize the active. The resulting solution is cloudy, reflecting the nature of the Fluraflo L4370 itself. The solution of 1% Compound 1 in Fluraflo L4370 is diluted 1:1 with 1.5% SLS in water to produce a clear solution, composed of 0.5% AN0128, 0.75% SLS, 50% Fluraflo L4370 in water Similar results are achieved using Fluracare L1220.
We also discovered that Tri-block Co-polymer Surfactant F127 is able to further enhance solubilization of Compound 1. In experimental liquid dentifrice formulas (Table 3), Compound 1 is not completely soluble over time, as evidenced by precipitation and crystallization over time. After the addition of 5% F127, experimental liquid dentifrice formulas (Table 4) remain clear. Therefore, Tri-block Co-polymer Surfactant F127 is able to further solubilize Compound 1 and is suitable for use in formulations.
We further discovered that low molecular weight polyethylene glycol 300 (PEG 300)(Dow Chemical Company) solubilizes 10% Compound 1 (% w/w). It is necessary to stir the solution over low heat to fully solubilize the active. The resulting solution is clear with a slight yellow tint due to the color of Compound 1. […] Therefore, we conclude that solvents containing oligomers and/or polymers of ethylene glycol are capable of solubilizing Compound 1 and are suitable for formulation.
The properties of Compound 1 in conjunction with other excipients are further evaluated by diluting a solution of Compound 1 in PEG 300 into other solvents such as propylene glycol and glycerin at varying ratios. A solution containing 1% Compound 1 in 19% PEG 300 and 80% propylene glycol is clear. […]

[3] = Decomposition of Compound 1 in buffered vs unbuffered pH 7.2 formulation; assay type: physicochemical; settings: phosphate buffered vs unbuffered formulation, pH 7.2, over 14 days
Description: Two pH 7.2 formulations of Compound 1 are prepared, one with phosphate buffer, one without, and the decomposition of Compound 1 is measured over 14 days. While measurable decomposition is seen in both formulations, the slope of the rate of decomposition Compound 1 in the buffered formulation is decreased by 3.3 fold compared to that of the unbuffered formulation.

Cc1ccc([B-]2(c3ccc(C)c(Cl)c3)OC(=O)c3ncccc3[OH+]2)cc1Cl [Compound 1]
percent reduction versus the negative control (biofilm; 0.5% AN0128, 0.75% SLS, 50% Fluraflo L4370 in water): 65%
percent reduction versus the negative control (biofilm; 0.5% Compound 1, 0.5% SLS, 9.5% PEG 300 and 40% propylene glycol in water): 80%
percent reduction versus the negative control (biofilm; 1% Compound 1, 1% SLS, 50% PEG 300 in water): 76%
decomposition in formulation ([1]; formulation containing sodium ascorbylphosphate vs without any antioxidants): significantly reduced
decomposition in formulation ([1]; formulation containing α-tocopherol vs sodium ascorbylphosphate formulation): even less
amount solubilized in Fluraflo L4370 [2]: 1 % w/w
amount solubilized in polyethylene glycol 300 [2]: 10 % w/w
solubility in various oils [2]: less than 0.5%
decrease of slope of the rate of decomposition of Compound 1 [3]: 3.3 fold

From patent US8852559B2 (Colgate-Palmolive Company, priority 2009, dated 2014)
